Patent publication US10251394B2, “Molecules having pesticidal utility, and intermediates, compositions, and processes, related thereto” (Dow AgroSciences LLC, priority 2016, dated 2019)

What was measured:
Assay type in all cases: in vivo
[1] = tested on: Cabbage Looper (Trichoplusia ni); assay: Bioassay on Cabbage Looper (CL), 128-well diet tray assay; details: Cabbage Looper, Table ABC, read-out: CL rating
In short: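 Mortality after five to seven days at 25° C (14:10 photoperiod), averaged over eight wells per compound. Diet in each well carried 50 μg/cm^2 of dried test molecule and received one to five second-instar larvae.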

[2] = tested on: Yellow Fever Mosquito (Aedes aegypti); assay: Bioassay on Yellow Fever Mosquito (YFM) larvae, 96-well plate; details: Table ABC
In short: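 About 1-day-old larvae in water with liver powder were added to wells holding compound from a 4000 ppm DMSO master diluted in 90:10 water:acetone. Plates covered and kept at room temperature for 3 days, then each well scored for mortality on a rating scale.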

[3] = tested on: Beet Armyworm (Spodoptera exigua); assay: Bioassay on Beet Armyworm (BAW), 128-well diet tray assay; details: Beet Armyworm, Table ABC, read-out: BAW rating
In short: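 Percent mortality, averaged over eight wells, was scored after five to seven days at 25° C under 14:10 light-dark. Each well's diet carried 50 μg/cm^2 of test molecule applied in acetone-water (90:10) and dried before one to five second-instar larvae were added.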

Compound	pest or weed control at 50 µg/cm2 [1]	YFM rating [2]	pest or weed control at 50 µg/cm2 [3]
O=C(CNC(=O)c1ccc(/C(F)=C/C(c2cc(Cl)cc(Br)c2)C(F)(F)F)cc1C(F)(F)F)NCC(F)(F)F (stereo not drawn) [F122, (Z)-4-(3-(3-Bromo-5-chlorophenyl)-1,4,4,4-tetrafluorobut-1-en-1-yl)-N-(2-oxo-2-((2,2,2-trifluoroethyl)amino)ethyl)-2-(trifluoromethyl)benzamide]	50 to 100%	B (More than 0-Less than 80)	50 to 100%
CN(CC(F)(F)F)C(=O)C1(NC(=O)c2ccc(/C(F)=C/C(c3ccc(Br)c(Br)c3)C(F)(F)F)cc2C(F)(F)F)CC1 (stereo not drawn) [F130, (Z)-4-(3-(3,4-Dibromophenyl)-1,4,4,4-tetrafluorobut-1-en-1-yl)-N-(1-(methyl(2,2,2-trifluoroethyl)carbamoyl)cyclopropyl)-2-(trifluoromethyl)benzamide]	50 to 100%	A (80-100)	50 to 100%
O=C(NC1(C(=O)NCC(F)(F)F)CC1)c1ccc(/C(F)=C/C(c2ccc(F)c(Cl)c2)C(F)(F)F)cc1C(F)(F)F (stereo not drawn) [F131, (Z)-4-(3-(3-Chloro-4-fluorophenyl)-1,4,4,4-tetrafluorobut-1-en-1-yl)-N-(1-((2,2,2-trifluoroethyl)carbamoyl)cyclopropyl)-2-(trifluoromethyl)benzamide]	50 to 100%	A (80-100)	50 to 100%
C[C@@H](NC(=O)c1ccc(/C(F)=C/C(c2ccc(F)c(Cl)c2)C(F)(F)F)cc1C(F)(F)F)C(=O)NCC(F)(F)F (stereo partly drawn) [F132, 4-((Z)-3-(3-Chloro-4-fluorophenyl)-1,4,4,4-tetrafluorobut-1-en-1-yl)-N—((R)-1-oxo-1-((2,2,2-trifluoroethyl)amino)propan-2-yl)-2-(trifluoromethyl)benzamide]	50 to 100%	B (More than 0-Less than 80)	50 to 100%
O=C(NC1(C(=O)NCC(F)(F)F)CC1)c1ccc(/C(F)=C/C(c2ccc(Cl)c(F)c2)C(F)(F)F)cc1C(F)(F)F (stereo not drawn) [F136, (Z)-4-(3-(4-Chloro-3-fluorophenyl)-1,4,4,4-tetrafluorobut-1-en-1-yl)-N-(1-((2,2,2-trifluoroethyl)carbamoyl)cyclopropyl)-2-(trifluoromethyl)benzamide]	50 to 100%	B (More than 0-Less than 80)	50 to 100%
CN(CC(F)(F)F)C(=O)CNC(=O)c1ccc(/C(F)=C/C(c2cc(Cl)cc(Br)c2)C(F)(F)F)cc1C(F)(F)F (stereo not drawn) [F137, (Z)-4-(3-(3-Bromo-5-chlorophenyl)-1,4,4,4-tetrafluorobut-1-en-1-yl)-N-(2-(methyl(2,2,2-trifluoroethyl)amino)-2-oxoethyl)-2-(trifluoromethyl)benzamide]	50 to 100%	B (More than 0-Less than 80)	50 to 100%
C[C@@H](NC(=O)c1ccc(/C(F)=C/C(c2ccc(Cl)c(Br)c2)C(F)(F)F)cc1C(F)(F)F)C(=O)NCC(F)(F)F (stereo partly drawn) [F138, 4-((Z)-3-(3-Bromo-4-chlorophenyl)-1,4,4,4-tetrafluorobut-1-en-1-yl)-N—((R)-1-oxo-1-((2,2,2-trifluoroethyl)amino)propan-2-yl)-2-(trifluoromethyl)benzamide]	50 to 100%	A (80-100)	50 to 100%
O=C(NC1(C(=O)NCC(F)(F)F)CC1)c1ccc(/C(F)=C/C(c2ccc(Cl)c(Br)c2)C(F)(F)F)cc1C(F)(F)F (stereo not drawn) [F139, (Z)-4-(3-(3-Bromo-4-chlorophenyl)-1,4,4,4-tetrafluorobut-1-en-1-yl)-N-(1-((2,2,2-trifluoroethyl)carbamoyl)cyclopropyl)-2-(trifluoromethyl)benzamide]	50 to 100%	A (80-100)	50 to 100%
C[C@@H](NC(=O)c1ccc(/C(F)=C/C(c2ccc(F)c(C(F)(F)F)c2)C(F)(F)F)cc1C(F)(F)F)C(=O)NCC(F)(F)F (stereo partly drawn) [F141, N—((R)-1-Oxo-1-((2,2,2-trifluoroethyl)amino)propan-2-yl)-4-((Z)-1,4,4,4-tetrafluoro-3-(4-fluoro-3-(trifluoromethyl)phenyl)but-1-en-1-yl)-2-(trifluoromethyl)benzamide]	50 to 100%	A (80-100)	50 to 100%
C[C@@H](NC(=O)c1ccc(/C(F)=C/C(c2cc(Cl)c(C(F)F)c(Cl)c2)C(F)(F)F)cc1C(F)(F)F)C(=O)NCC(F)(F)F (stereo partly drawn) [F142, 4-((Z)-3-(3,5-Dichloro-4-(difluoromethyl)phenyl)-1,4,4,4-tetrafluorobut-1-en-1-yl)-N—((R)-1-oxo-1-((2,2,2-trifluoroethyl)amino)propan-2-yl)-2-(trifluoromethyl)benzamide]	50 to 100%	A (80-100)	50 to 100%
O=C(N[C@@H]1CON(CC(F)(F)F)C1=O)c1ccc(/C(F)=C/C(c2cc(Cl)c(C(F)F)c(Cl)c2)C(F)(F)F)cc1C(F)(F)F (stereo partly drawn) [F143, 4-((2)-3-(3,5-Dichloro-4-(difluoromethyl)phenyl)-1,4,4,4-tetrafluorobut-1-en-1-yl)-N—((R)-3-oxo-2-(2,2,2-trifluoroethyl)isoxazolidin-4-yl)-2-(trifluoromethyl)benzamide]	50 to 100%	A (80-100)	50 to 100%
C/C=C/c1c(Cl)cc(C(/C=C(\F)c2ccc(C(=O)N[C@H](C)C(=O)NCC(F)(F)F)c(C(F)(F)F)c2)C(F)(F)F)cc1Cl (stereo partly drawn) [F147, 4-((Z)-3-(3,5-Dichloro-4-((E)-prop-1-en-1-yl)phenyl)-1,4,4,4-tetrafluorobut-1-en-1-yl)-N—((R)-1-oxo-1-((2,2,2-trifluoroethyl)amino)propan-2-yl)-2-(trifluoromethyl)benzamide]	50 to 100%	A (80-100)	50 to 100%
O=C(CNC(=O)c1ccc(/C(F)=C/C(c2cc(F)c(F)c(Cl)c2)C(F)(F)F)cc1C(F)(F)F)NCC(F)(F)F (stereo not drawn) [F153, (Z)-4-(3-(3-Chloro-4,5-difluorophenyl)-1,4,4,4-tetrafluorobut-1-en-1-yl)-N-(2-oxo-2-((2,2,2-trifluoroethyl)amino)ethyl)-2-(trifluoromethyl)benzamide]	50 to 100%	A (80-100)	50 to 100%
O=C(CNC(=O)c1ccc(/C(F)=C/C(c2cc(F)cc(Cl)c2)C(F)(F)F)cc1C(F)(F)F)NCC(F)(F)F (stereo not drawn) [F157, (Z)-4-(3-(3-Chloro-5-fluorophenyl)-1,4,4,4-tetrafluorobut-1-en-1-yl)-N-(2-oxo-2-((2,2,2-trifluoroethyl)amino)ethyl)-2-(trifluoromethyl)benzamide]	50 to 100%	A (80-100)	50 to 100%
C[C@@H](NC(=O)c1ccc(/C(F)=C/C(c2cc(F)c(F)c(F)c2)C(F)(F)F)cc1C(F)(F)F)C(=O)NCC(F)(F)F (stereo partly drawn) [F159, N—((R)-1-Oxo-1-((2,2,2-trifluoroethyl)amino)propan-2-yl)-4-((Z)-1,4,4,4-tetrafluoro-3-(3,4,5-trifluorophenyl)but-1-en-1-yl)-2-(trifluoromethyl)benzamide]	50 to 100%	A (80-100)	50 to 100%
COc1ccc(C(/C=C(\F)c2ccc(C(=O)N[C@H](C)C(=O)NCC(F)(F)F)c(C(F)(F)F)c2)C(F)(F)F)cc1Cl (stereo partly drawn) [F161, 4-((Z)-3-(3-Chloro-4-methoxyphenyl)-1,4,4,4-tetrafluorobut-1-en-1-yl)-N—((R)-1-oxo-1-((2,2,2-trifluoroethyl)amino)propan-2-yl)-2-(trifluoromethyl)benzamide]	50 to 100%	A (80-100)	50 to 100%
CC(=O)CNC(=O)CNC(=O)c1ccc(/C(F)=C/C(c2cc(Cl)c(Cl)c(Cl)c2)C(F)(F)F)cc1C(F)(F)F (stereo not drawn) [F163, (Z)—N-(2-Oxo-2-((2-oxopropyl)amino)ethyl)-4-(1,4,4,4-tetrafluoro-3-(3,4,5-trichlorophenyl)but-1-en-1-yl)-2-(trifluoromethyl)benzamide]	50 to 100%	A (80-100)	50 to 100%
CCc1ccc(C(/C=C(\F)c2ccc(C(=O)N[C@H](C)C(=O)NCC(F)(F)F)c(C(F)(F)F)c2)C(F)(F)F)cc1Cl (stereo partly drawn) [F164, 4-((Z)-3-(3-Chloro-4-ethylphenyl)-1,4,4,4-tetrafluorobut-1-en-1-yl)-N—((R)-1-oxo-1-((2,2,2-trifluoroethyl)amino)propan-2-yl)-2-(trifluoromethyl)benzamide]	50 to 100%	B (More than 0-Less than 80)	50 to 100%
CCc1ccc(C(/C=C(\F)c2ccc(C(=O)NCC(=O)NCC(F)(F)F)c(C(F)(F)F)c2)C(F)(F)F)cc1Cl (stereo not drawn) [F165, (Z)-4-(3-(3-Chloro-4-ethylphenyl)-1,4,4,4-tetrafluorobut-1-en-1-yl)-N-(2-oxo-2-((2,2,2-trifluoroethyl)amino)ethyl)-2-(trifluoromethyl)benzamide]	50 to 100%	B (More than 0-Less than 80)	50 to 100%
C[C@@H](NC(=O)c1ccc(/C(F)=C/C(c2cc(Cl)c(Cl)c(Cl)c2)C(F)(F)F)cc1C(F)(F)F)C(=O)N(C)C (stereo partly drawn) [F172, N—((R)-1-(Dimethylamino)-1-oxopropan-2-yl)-4-((Z)-1,4,4,4-tetrafluoro-3-(3,4,5-trichlorophenyl)but-1-en-1-yl)-2-(trifluoromethyl)benzamide]	50 to 100%	B (More than 0-Less than 80)	50 to 100%
